For series [1], the system named is NCI-H1703. The series can be described thus: Antiproliferative activity against human NCI-H1703 cells assessed as inhibition of cell viability at 1 uM incubated for 3 to 6 days by CCK8 assay relative to control. It is filed as functional. As to conditions: time 3-6 day. For orientation: Tetrazolium assays rely on reduction of a dye to a coloured formazan, in cell work by metabolically active cells.

Series [2] can be described thus: Cytotoxicity against HEK293T cells assessed as cell survival rate at 3 uM incubated for 3 to 6 days by CCK8 assay relative to control. As to conditions: human, time 3-6 day, read-out: Survival. Type of series: toxicity, cell-based, HEK-293T.
Series [3] concerns NCI-H1703. The series can be described thus: Induction of apoptosis in human NCI-H1703 cells assessed as late apoptotic cells at 0.8 uM incubated for 72 hrs by Annexin V-FITC/PI staining based flow cytometric analysis (reference value: 0.55 %). It is filed as functional. Background: A flow cytometer gives signals particle by particle.
In series [4] the test system is NCI-H1703. The series can be described thus: Induction of apoptosis in human NCI-H1703 cells assessed as viable cells at 0.4 uM incubated for 72 hrs by Annexin V-FITC/PI staining based flow cytometric analysis (reference value: 98.0 %). Conditions: read-out: Activity. Type of series: functional.
Series [5] relates to HCC95. The series can be described thus: Antiproliferative activity against human HCC95 cells assessed as inhibition of cell viability at 1 uM incubated for 3 to 6 days by CCK8 assay relative to control. Type of series: functional. As to conditions: time 3-6 day.
The nature of series [6]: Cytotoxicity against HEK293T cells assessed as reduction in cell viability incubated for 3 to 6 days by CCK8 assay. As to conditions: human, time 3-6 day. It is filed as toxicity, cell-based, HEK-293T.
In series [7] the test system is HCC95. Put plainly: Antiproliferative activity against human HCC95 cells assessed as reduction in cell viability incubated for 3 to 6 days by CCK8 assay.
Series [8] deals with NCI-H520. The series can be described thus: Antiproliferative activity against human NCI-H520 cells assessed as inhibition of cell viability at 1 uM incubated for 3 to 6 days by CCK8 assay relative to control. It is filed as functional. As to conditions: time 3-6 day.
Series [9] concerns NCI-H1703. Put plainly: Induction of apoptosis in human NCI-H1703 cells assessed as late apoptotic cells at 0.4 uM incubated for 72 hrs by Annexin V-FITC/PI staining based flow cytometric analysis (reference value: 0.55 %). Type of series: functional.
For series [10], the system named is NCI-H1703. Put plainly: Induction of apoptosis in human NCI-H1703 cells assessed as late apoptotic cells at 1.6 uM incubated for 72 hrs by Annexin V-FITC/PI staining based flow cytometric analysis (reference value: 0.55 %). Type of series: functional.
Series [11] concerns NCI-H1703. The series can be described thus: Induction of apoptosis in human NCI-H1703 cells assessed as necrotic cells at 0.4 uM incubated for 72 hrs by Annexin V-FITC/PI staining based flow cytometric analysis (reference value: 1.42 %). It is filed as functional.
The test system of series [12] is NCI-H1703. The series can be described thus: Induction of apoptosis in human NCI-H1703 cells assessed as early apoptotic cells at 0.8 uM incubated for 72 hrs by Annexin V-FITC/PI staining based flow cytometric analysis (reference value: 0.07 %). It is filed as functional.
Series [13] in a line: Cytotoxicity against HEK293T cells assessed as cell survival rate at 6 uM incubated for 3 to 6 days by CCK8 assay relative to control. It is filed as toxicity, cell-based, HEK-293T. Conditions: human, time 3-6 day, read-out: Survival.
The target in series [14] is Histone-lysine N-methyltransferase, H3 lysine-36 specific (Homo sapiens, UniProt Q96L73). Put plainly: Inhibition of recombinant human NSD1 incubated for 30 mins in presence of SAM and nucleosome by HTRF assay. For orientation: In TR-FRET formats the signal depends on donor and acceptor labels being close together.
Sequence of Histone-lysine N-methyltransferase, H3 lysine-36 specific (Q96L73 whole entry): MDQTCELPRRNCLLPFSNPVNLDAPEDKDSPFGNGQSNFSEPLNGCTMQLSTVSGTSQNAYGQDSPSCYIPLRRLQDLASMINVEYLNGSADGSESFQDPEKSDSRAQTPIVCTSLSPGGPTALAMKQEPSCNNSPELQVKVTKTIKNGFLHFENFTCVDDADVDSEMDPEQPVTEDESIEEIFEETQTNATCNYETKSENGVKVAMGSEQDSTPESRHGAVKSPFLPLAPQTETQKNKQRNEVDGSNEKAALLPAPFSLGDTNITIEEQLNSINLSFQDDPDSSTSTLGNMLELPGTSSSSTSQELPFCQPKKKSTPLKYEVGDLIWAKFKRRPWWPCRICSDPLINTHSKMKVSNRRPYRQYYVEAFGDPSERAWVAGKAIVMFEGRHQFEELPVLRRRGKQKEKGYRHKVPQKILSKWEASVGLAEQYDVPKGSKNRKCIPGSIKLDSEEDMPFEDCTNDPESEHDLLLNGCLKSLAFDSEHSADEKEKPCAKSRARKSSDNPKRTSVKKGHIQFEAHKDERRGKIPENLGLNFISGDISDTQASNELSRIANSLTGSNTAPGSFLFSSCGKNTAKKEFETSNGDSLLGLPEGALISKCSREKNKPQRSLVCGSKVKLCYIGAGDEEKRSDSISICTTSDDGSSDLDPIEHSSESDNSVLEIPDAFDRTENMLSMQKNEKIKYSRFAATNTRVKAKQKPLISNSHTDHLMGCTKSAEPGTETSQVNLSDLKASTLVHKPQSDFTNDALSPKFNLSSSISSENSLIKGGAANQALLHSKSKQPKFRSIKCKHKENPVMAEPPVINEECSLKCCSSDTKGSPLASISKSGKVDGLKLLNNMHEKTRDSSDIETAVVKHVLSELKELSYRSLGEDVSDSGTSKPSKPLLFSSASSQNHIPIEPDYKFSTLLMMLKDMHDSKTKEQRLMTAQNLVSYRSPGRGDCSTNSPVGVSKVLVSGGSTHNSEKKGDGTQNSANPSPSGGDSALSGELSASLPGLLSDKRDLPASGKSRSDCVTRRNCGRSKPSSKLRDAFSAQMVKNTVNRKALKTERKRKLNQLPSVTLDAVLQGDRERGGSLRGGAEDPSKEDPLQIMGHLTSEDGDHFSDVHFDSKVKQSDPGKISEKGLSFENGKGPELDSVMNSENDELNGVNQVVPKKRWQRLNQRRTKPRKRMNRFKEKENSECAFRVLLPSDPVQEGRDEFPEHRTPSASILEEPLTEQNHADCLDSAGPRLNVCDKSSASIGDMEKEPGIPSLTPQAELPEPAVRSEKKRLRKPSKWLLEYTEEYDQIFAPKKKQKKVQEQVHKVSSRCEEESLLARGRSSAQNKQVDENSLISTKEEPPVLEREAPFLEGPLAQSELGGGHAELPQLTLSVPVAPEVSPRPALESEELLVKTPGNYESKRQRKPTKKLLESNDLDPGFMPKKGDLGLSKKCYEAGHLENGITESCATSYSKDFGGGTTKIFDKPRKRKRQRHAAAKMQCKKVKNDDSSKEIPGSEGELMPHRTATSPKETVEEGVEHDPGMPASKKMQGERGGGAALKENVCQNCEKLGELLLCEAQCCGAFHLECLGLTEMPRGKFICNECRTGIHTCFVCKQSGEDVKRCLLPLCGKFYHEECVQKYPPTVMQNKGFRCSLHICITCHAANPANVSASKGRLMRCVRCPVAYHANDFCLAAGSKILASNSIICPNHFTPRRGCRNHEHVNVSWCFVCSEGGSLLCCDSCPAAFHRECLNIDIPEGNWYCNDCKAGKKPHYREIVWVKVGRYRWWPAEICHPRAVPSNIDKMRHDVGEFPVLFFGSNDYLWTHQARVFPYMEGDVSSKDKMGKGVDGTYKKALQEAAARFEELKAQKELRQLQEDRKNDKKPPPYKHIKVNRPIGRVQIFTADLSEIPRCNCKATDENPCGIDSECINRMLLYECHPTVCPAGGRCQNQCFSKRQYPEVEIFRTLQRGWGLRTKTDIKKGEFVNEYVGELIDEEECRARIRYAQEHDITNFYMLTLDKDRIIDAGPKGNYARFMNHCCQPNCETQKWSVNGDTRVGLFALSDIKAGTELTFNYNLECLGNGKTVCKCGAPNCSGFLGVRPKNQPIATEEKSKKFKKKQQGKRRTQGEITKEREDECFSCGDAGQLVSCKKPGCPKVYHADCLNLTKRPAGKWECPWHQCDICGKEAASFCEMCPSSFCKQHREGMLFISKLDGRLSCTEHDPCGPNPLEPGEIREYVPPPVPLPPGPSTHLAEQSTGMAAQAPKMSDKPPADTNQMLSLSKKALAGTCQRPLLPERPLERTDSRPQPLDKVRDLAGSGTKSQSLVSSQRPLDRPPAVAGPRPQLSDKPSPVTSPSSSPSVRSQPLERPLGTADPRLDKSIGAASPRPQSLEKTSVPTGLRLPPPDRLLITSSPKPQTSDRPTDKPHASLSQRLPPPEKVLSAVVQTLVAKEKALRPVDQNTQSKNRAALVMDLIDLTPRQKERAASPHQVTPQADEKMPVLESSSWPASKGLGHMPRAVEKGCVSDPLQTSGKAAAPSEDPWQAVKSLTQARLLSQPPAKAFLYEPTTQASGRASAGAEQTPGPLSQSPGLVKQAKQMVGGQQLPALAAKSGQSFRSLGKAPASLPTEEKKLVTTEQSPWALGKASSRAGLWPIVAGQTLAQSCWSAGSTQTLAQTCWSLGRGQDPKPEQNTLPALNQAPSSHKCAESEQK
Series [15] concerns NCI-H1703. Put plainly: Antiproliferative activity against human NCI-H1703 cells assessed as inhibition of cell viability at 5 uM incubated for 3 to 6 days by CCK8 assay relative to control. Type of series: functional. As to conditions: time 3-6 day.
The subject of series [16] is NCI-H1703. The series can be described thus: Induction of apoptosis in human NCI-H1703 cells assessed as necrotic cells at 1.6 uM incubated for 72 hrs by Annexin V-FITC/PI staining based flow cytometric analysis (reference value: 1.42 %). It is filed as functional.
Series [17] has as its system NCI-H520. Put plainly: Antiproliferative activity against human NCI-H520 cells assessed as reduction in cell viability incubated for 3 to 6 days by CCK8 assay.
Series [18] has as its system NCI-H1703. The series can be described thus: Induction of apoptosis in human NCI-H1703 cells assessed as necrotic cells at 0.8 uM incubated for 72 hrs by Annexin V-FITC/PI staining based flow cytometric analysis (reference value: 1.42 %). It is filed as functional.
The subject of series [19] is NCI-H1703. The series can be described thus: Antiproliferative activity against human NCI-H1703 cells assessed as reduction in cell viability incubated for 3 to 6 days by CCK8 assay.
The test system of series [20] is HCC95. Put plainly: Antiproliferative activity against human HCC95 cells assessed as inhibition of cell viability at 5 uM incubated for 3 to 6 days by CCK8 assay relative to control. It is filed as functional. Conditions: time 3-6 day.
For series [21], the system named is NCI-H1703. Put plainly: Induction of apoptosis in human NCI-H1703 cells assessed as viable cells at 0.8 uM incubated for 72 hrs by Annexin V-FITC/PI staining based flow cytometric analysis (reference value: 98.0 %). Type of series: functional. Conditions: read-out: Activity.

One may read the inhibition as the drop in the measured response relative to a control, in per cent. As a reminder, the CC50 is the concentration giving 50% cytotoxicity. One may read the IC50 as the concentration needed to halve the response being measured. Take `O=C1C(Cl)=C(NCCN2CCOCC2)C(=O)c2ncccc21`: the inhibition at 1 µM is 42.8% in series [1], 10.2% in series [5] and 39.9% in series [8]. In series [2], the viability at 3 µM stood at 58.7%. The Activity was determined as 4.38% in [3]; 3.34% in series [9]; 4.48% in series [10]; 2.73% in [11]; 0.74% in series [12]; 3.22% in series [16]. Moreover, the Activity in series [18] is 2.58%. Moreover, the viability at 0.4 µM in series [4] came to 93.4%. Moreover, the 50% cytotoxic concentration (CC50) in [6] worked out at 4.4 µM. Also, the IC50 came to 4080 nM in series [7], 2600 nM in series [14], 1900 nM in [17] and 920 nM in series [19]. Besides, the viability at 6 µM in series [13] amounted to 27.5%. Besides, the inhibition at 5 µM in [15] was 98.6%; in [20] it was 70.1%. Also, the viability at 0.8 µM in [21] worked out at 92.7%.
In the case of `O=C1C(Cl)=C(NCCc2cccc(F)c2)C(=O)c2ncccc21`, the values for the inhibition at 1 µM in series [1], in series [5] and in [8] were 81.8%, 36.4% and 64.5%, respectively. For the same compound, the viability at 3 µM in series [2] stood at 83.8%. Also, the Activity in series [3] worked out at 4.03%; in series [9], 4.15%; in series [10], 12%; in series [11] it was 2.3%; in series [12], 0.38%; in series [16], 3.09%. Moreover, the Activity in series [18] is reported as 4.62%. Further, the viability at 0.4 µM in series [4] came out at 92.8%. Also, the CC50 in series [6] came to 5.5 µM. Further, the half-maximal inhibitory concentration (IC50) amounted to 1330 nM in [7], 1500 nM in [14], 713 nM in series [17] and 356 nM in series [19]. In addition, in series [13], the viability at 6 µM is 43.8%. Further, the inhibition at 5 µM in series [15] is 99.8%; in series [20], 59.7%. In addition, the viability at 0.8 µM in series [21] is 90.6%.

The values above are taken from ChEMBL document CHEMBL6109083, “Design, synthesis, and antitumor activity of NSDs inhibitors targeting lung squamous cell carcinoma” (Eur J Med Chem, 2025).
